From patent US6943186B2, “Methods of treating sepsis” (Yung Shin Pharmaceutical Ind. Co., Ltd., priority 2002, dated 2005)
“And” between values parts separate entries of the source, which are not always exact repeats. Identical values can stand only once. “Also recorded” adds a separate entry of the source.

How the values were obtained:
[1] = test system: intracellular cGMP levels; test: Assay of cGMP contents; assay type: cell-based, rat
Experimental: (§1) Cell Culture Rat aortic smooth muscle cells (RASMCs) were prepared from Sprague-Dawley rats and cultured in Dulbecco's modified Eagle's medium (DMEM) supplemented with 10% FBS, 100 units/mL penicillin and 100 μg/mL streptomycin (Gibco, Grand Island, N.Y.) as previously described (Yang et al. (2001) Br J Pharmacol. 132: 1531-1541). Cells within six generations were used in the present study. Cells were identified being the smooth muscle cells by immunostaining with monoclonal antibody specific for smooth muscle α-actin.
Assay of cGMP Contents At confluence, monolayer cells were incubated with indicated agents for 10 minutes. Then cells were washed twice with ice-cold PBS and lysed with 0.5 mL NaOH (0.1 mol/L). 0.5 mL HCl (0.1 mol/L) was then added to neutralize the assay solution. After the centrifugation (3,000×g for 3 minutes), the supernatant was used for the detection of cGMP content by using a cGMP ELISA kit.

[2] = test system: caspase-3; test: Determination of caspase-3 activity in RASMCs; assay type: cell-based, rat
Experimental: Determination of Caspase-3 Activity
The Caspase-3 activity was assayed with the Caspase-3 colorimetric assay kit (R&D Systems, Inc., Minneapolis, Minn.). After the treatment of cells with indicated agents for ten hours, cells were washed twice with ice-cold PBS, trypsinized, and centrifuged (800×g for 5 minutes), and the cell pellet was re-suspended in pre-cooled lysis buffer obtained from the Caspase-3 colorimetric assay kit. After 10 minutes of incubation on ice, cell homogenates were centrifuged at 10,000×g for 1 minute and supernatants were removed for the determination of caspase-3 activity. Proteolytic reactions were performed in a total volume of 100 μL reaction buffer containing 50 μL of cytosolic extracts and 5 μL DEVD-pNA obtained from the kit. The reaction mixture was incubated at 37° C. for one to two hours and the formation of p-nitroaniline was then measured at 405 nm by an ELISA reader.

[3] = Reduction of cytochrome c by superoxide anion (xanthine/xanthine oxidase); assay type: biochemical; conditions: xanthine/xanthine oxidase system; control 42.0±2.1; P=0.4, n=4
[4] = test system: phosphorylated Akt; test: Western blot of phosphorylated Akt; assay type: cell-based, rat
Experimental: (§2) Western Blot Analysis After the exposure of cells to the indicated agents for four (for Bcl-2) or six (for cytochrome c) hours, cells were washed twice with ice-cold PBS and reaction was terminated by the addition of 100 μL ice-cold lysis buffer (10 mmol/L Tris-HCl, pH 7.4, 150 mmol/L NaCl, 1 mmol/L EGTA, 0.5 mmol/L phenylmethylsulfonyl fluoride (PMSF), 10 μg/mL aprotinin, 10 μg/mL leupeptin, and 1% Triton X-100). For the detection of phosphorylated Akt, 1 mmol/L Na3VO4, 1 mmol/L NaF, 50 mmol/L tetrasodium pyrophosphate, 10 nmol/L okadaic acid, 0.25% sodium deoxycholate were included in the lysis buffer. Protein content was determined by the Bio-Rad protein assay (Bio-Rad Laboratories, CA, USA). For Western blot analysis, cell lysates (25 μg/lane) were electrophoresized on 10-15% SDS-polyacrylamide gels, and transferred to a nitrocellulose membrane. The membranes were probed with anti-Bcl-2 or anti-α-tubulin monoclonal antibody, or anti-phosphorylated Akt polyclonal antibody. The transferred membranes were developed with a secondary anti-mouse or anti-rabbit antibody as we previously described (Guh et al. (1998) Eur. J. Pharmacol. 359: 281-284). Detection of signal was performed with an enhanced chemiluminescence detection kit (ECL; Amersham International, Little Chalfont, U.K.).

[5] = Free radical-scavenging activity with 1,1-diphenyl-2-picrylhydrazyl; conditions: stable radical 1,1-diphenyl-2-picrylhydrazyl; data not shown
[6] = test system: NR8383 macrophages; test: LPS/interferon γ-induced tumor necrosis factor-α release; assay type: cell-based; conditions: control 15.5±1.3, P=0.13, n=4
[7] = test system: cyclooxygenase; conditions: Ko et al. (1994) Blood 84: 4226-4233; cited from earlier work
[8] = test system: Bcl-2; test: Western blot of Bcl-2 levels; assay type: cell-based, rat
Experimental: as §2

[9] = test system: cytochrome c; test: Detection of cytochrome c release; assay type: cell-based, rat
Experimental: Detection of Cytochrome c Release Reaction Cells were trypsinized and centrifuged at 800×g for 10 minutes. Then, the cell pellet was re-suspended in 50 μL of extraction buffer containing 20 mmol/L HEPES, pH 7.5, 10 mmol/L KCl, 1.5 mmol/L MgCl2, 1 mmol/L EDTA, 1 mmol/L EGTA, 1 mmol/L dithithretol, 1 mmol/L PMSF) and incubated for 3 minutes on ice. Cells were managed with 30 strokes and centrifuged at 15,000×g for 15 minutes at 4° C. Aliquots of 20 μg protein were resolved on 15% SDS-polyacrylamide gel and then blotted to PVDF membranes. Membranes were incubated with anti-cytochrome c monoclonal antibody. Then, membranes were incubated with anti-mouse IgG and the expression of cytochrome c was detected as described previously.
Western Blot Analysis After the exposure of cells to the indicated agents for four (for Bcl-2) or six (for cytochrome c) hours, cells were washed twice with ice-cold PBS and reaction was terminated by the addition of 100 μL ice-cold lysis buffer (10 mmol/L Tris-HCl, pH 7.4, 150 mmol/L NaCl, 1 mmol/L EGTA, 0.5 mmol/L phenylmethylsulfonyl fluoride (PMSF), 10 μg/mL aprotinin, 10 μg/mL leupeptin, and 1% Triton X-100). […] Protein content was determined by the Bio-Rad protein assay (Bio-Rad Laboratories, CA, USA). […]

[10] = test system: murine macrophage RAW 264.7 cells; test: LPS-evoked NO formation; assay type: cell-based; conditions: RAW 264.7, LPS 1 μg/mL, 24-hour; control 68.8±13.4; P=0.43, n=4
[11] = test system: LPS-induced septic death in mouse model; test: LPS-induced endotoxic shock (septic death) and lung histology; assay type: in vivo, mice
Experimental: Induction of Endotoxic Shock and Histological Examination In these experiments, mice (25-30 g, ICR strain) were injected intraperitoneally with 60 mg/kg of LPS (dissolved in PBS), and Compound 3 (suspended in carboxymethyl cellulose) was orally administered after the injection of LPS for 2 and 6 hours. The survival rate was monitored every 3 to 6 hours after LPS injection. For histological examination, the lung tissues were put into the 4% paraformaldehyde and embedded in paraffin. The embedded tissues were sectioned at 6-μm thick, stained with hematoxylin-eosin, and analyzed using a microscopy.

[12] = test system: rat aortic smooth muscle cells; test: Cytotoxicity (MTT) assay and TUNEL labeling, SNP-induced apoptosis in RASMCs; assay type: cell-based; conditions: for Cell survival (%) / effect on SNP-induced apoptosis / effect on Compound 3-induced cell proliferation / effect on Compound 3-mediated anti-apoptotic action: RASMCs; for effect on SNP-induced apoptosis: SNP 1 mmol/L, Compound 3 30 μmol/L; for effect on Compound 3-mediated anti-apoptotic action: inhibitor added to Compound 3 + SNP
Experimental: as §1
Cytotoxicity Assay The cytotoxicity assay was carried out using the MTT assay method. MTT (3-(4,5-dimethylthiazol-2-yl)-2,5-diphenyltetrazolium bromide, Sigma Chemical, St. Louis, Mo.) was dissolved in phosphate-buffered saline (PBS) at a concentration of 5 mg/mL and filtered (Millipore, Bedford, Mass.). From this stock solution, 10 μL/100 μL of medium was added to each well of a plate, and the plate was gently shaken and incubated at 37° C. for 2 hours. […] After the loading of MTT, the medium was replaced with 100 μL dimethylsulphoxide (DMSO). The extent of reduction of MTT to formazan within cells was quantified by the measurement of OD550 with an enzyme-linked immunosorbent assay (ELISA) reader.
In Situ Labeling of Apoptotic Cells In situ detection of apoptotic cells was carried out by using a terminal deoxynucleotidyl transferase (TdT) dUTP nick-end labeling (TUNEL) method with an apoptotic detection kit (Promega, Madison, Wis., USA) as described previously (Guh et al. (1998) Mol Pharmacol. 53: 467-474). The TUNEL method identifies apoptotic cells in situ by using TdT to transfer biotin-dUTP to the free 3′-OH of cleaved DNA. The biotin-labeled cleavage sites then were visualized by reaction with fluorescein conjugated avidin (avidin-fluorescein isothiocyanate). Photomicrographs were obtained with a fluorescence microscope (Nikon).

[13] = combination of SNP and Compound 3
[14] = single agent alone, mean ± SEM, control 100
[15] = inhibitor added to Compound 3 + SNP

OCc1ccc(-c2nn(Cc3ccccc3)c3ccccc23)o1 [Compound 3]
cGMP synthesis ([1]; Compound 3 alone, basal 2.3±0.3, 10 minutes): 4.2±0.8 fmol/well
cGMP formation [1, 13]: 252.8±81.8 fmol/well
increase of cGMP formation (folds) [1, 13]: more than sixty folds
effect on SNP-induced caspase-3 activity ([2]; SNP 1 mmol/L, RASMCs): completely inhibited
reduction of cytochrome c by superoxide anion [3]: 40±0.6%
phosphorylated Akt expression ([4]; Compound 3 alone): profound increase
phosphorylated Akt expression ([4]; Compound 3 in combination with SNP): profound increase
free radical-scavenging activity [5]: little free radical-scavenging activity
LPS/interferon γ-induced tumor necrosis factor-α release [6]: 18.5 ± 1.2 ng/mL
inhibition on cyclooxygenase activity [7]: no inhibition
effect on SNP-induced Bcl-2 down-regulation ([8]; SNP 1 mmol/L): completely prevented
effect on SNP-induced cytochrome c release ([9]; SNP 1 mmol/L): completely prevented
NO formation (nitrite) [10]: 53.4 ± 12.3 µmol/L
condition of survived mice after LPS initiation ([11]; LPS 60 mg/kg i.p., Compound 3 10 mg/kg oral post-treatment): remained vigorous more than one month
survival rate of mice ([11]; LPS 60 mg/kg i.p., Compound 3 10 mg/kg oral two hours after LPS): significantly increased
histological examination of lung tissues ([11]; post-treated Compound 3 group, LPS mice): intact blood vessels without the infiltration of blood cells
increase in cell number ([12]; Compound 3 alone, not statistically significant): 11%
Cell survival (%) ([12]; ODQ + Compound 3): 96.1 ± 4.2%
Cell survival (%) ([12]; ODQ + SNP + Compound 3): 69.6 ± 4.0 %
effect on SNP-induced apoptosis [12]: completely abolished
Cell survival (%) ([12]; SNP + Compound 3 (SNP 1 mmol/L, Compound 3 30 μmol/L)): 100.6±5.5% and 102.9 ± 8.1^+ %
ODQ-irresponsible action in Compound 3-mediated effect ([12]; remaining anti-apoptotic effect in presence of ODQ): about 20%
Cell survival (%) [12, 14]: 111.3 ± 8.8%

O=c1onc2cnc3ccccc3n12 [ODQ, reference compound]
cGMP level ([1]; ODQ + Compound 3 alone): the basal value
cGMP level ([1]; ODQ + combination of SNP and Compound 3): ~21 fmol/well
effect on Compound 3-mediated inhibition of caspase-3 activity [2, 15]: partially but significantly reversed
effect on Compound 3-induced phosphorylated Akt expression ([4]; Compound 3 alone or with SNP): profoundly inhibited
effect on preventive action of Compound 3 (Bcl-2 down-regulation) [8, 15]: fully reversed
effect on preventive action of Compound 3 (cytochrome c release) [9, 15]: fully reversed
effect on Compound 3-induced cell proliferation [12]: completely inhibited
effect on SNP-induced apoptosis [12]: no influence
effect on Compound 3-mediated anti-apoptotic action [12]: significantly reversed
Cell survival (%) [12, 14]: 99.5 ± 5.7%

COc1cccc(-c2cc(=O)c3ccccc3o2)c1N [PD98059]
effect on Compound 3-induced cell proliferation [12]: completely inhibited
effect on Compound 3-mediated anti-apoptotic action [12]: significantly reversed; also recorded: not PD98059 reversed

Cn1cc(C2=C(c3cn(CCCSC(=N)N)c4ccccc34)C(=O)NC2=O)c2ccccc21 [Ro-318220]
cell survival ([12]; Ro-318220 added to Compound 3 plus SNP, n=7): 107.1±3.1%
effect on Compound 3-mediated anti-apoptotic action [12]: little influence

CCCC(=O)Nc1nc2c(ncn2C2OC3COP(=O)([O-])OC3C2OC(=O)CCC)c(=O)[nH]1.[Na+] (centres unmarked) [dibutyl-cGMP]
effect on SNP-induced apoptosis [12]: significantly reverse
